Reference: patent publication US7595320B2, “Hydrazinocarbonyl-thieno[2,3-C]pyrazoles, process for preparing them, compositions containing them and use thereof” (Aventis Pharma S.A., priority 2005, dated 2009)

Columns and labels:
Assay type in all cases: biochemical
Aurora1 = biological target: T1, Aurora1 (Homo sapiens, UniProt Q96GD4); test: Aurora1 enzymatic test, NuMA phosphorylation with [33P]ATP, Flashplate; details: Aurora-B/INCENP-C3 recombinant complex, 1 μM ATP
T1 construct: His tag (N); made in house
T1 sequence (Q96GD4 whole entry, species assumed): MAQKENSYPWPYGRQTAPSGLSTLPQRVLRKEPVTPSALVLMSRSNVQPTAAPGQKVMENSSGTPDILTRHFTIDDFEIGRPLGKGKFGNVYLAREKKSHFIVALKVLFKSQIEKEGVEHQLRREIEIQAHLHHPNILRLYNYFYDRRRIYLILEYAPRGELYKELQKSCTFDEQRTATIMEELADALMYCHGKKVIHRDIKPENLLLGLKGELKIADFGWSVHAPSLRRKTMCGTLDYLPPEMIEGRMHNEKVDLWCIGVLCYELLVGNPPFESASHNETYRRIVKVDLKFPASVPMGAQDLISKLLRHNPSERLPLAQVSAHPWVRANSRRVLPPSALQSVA
T1 sequence (Q9NQS7 835-903 partner limits assumed, species assumed): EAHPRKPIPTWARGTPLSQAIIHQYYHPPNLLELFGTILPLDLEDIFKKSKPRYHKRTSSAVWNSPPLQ
Procedure: (§1) The inhibitory effect of compounds with respect to the kinases Aurora1 and Aurora2 is determined by means of an enzymatic test using radioactivity detection.
(§2) The kinase activity of Aurora1 and Aurora2 is evaluated via the phosphorylation of the substrate Numa-histidine in the presence of radiolabelled ATP ([^33P]ATP) using 96-well Flashplate plates in which the nickel chelate is bound to the surface of the microplate. The amount of ^33P phosphate incorporated into the NuMA substrate is proportional to the activity of the enzyme Aurora1 or Aurora2.
Aurora1: Aurora-B/INCENP-C3 recombinant complex, purified to about 50%, the N-terminal end of Aurora-B of which has been labeled with histidine.
(§3) NuMA (nuclear protein that combines with the mitotic apparatus): 424-amino acid fragment, expressed in E. coli, the N-terminal end of which has been labeled with histidine, and used as substrate for the two Aurora enzymes.
(§4) The microplates used are 96-well Flash-Plate plates, nickel chelate (Perkin-Elmer, model SMP107).
(§5) The products to be evaluated are incubated in a reaction volume of 100 μL per well, in the presence of 10 nM of Aurora1 or Aurora2, 500 nM of NuMA substrate in a buffer composed of 50 mM Tris/HCl (pH 7.5), 50 mM NaCl, 5 mM MgCl2 (Aurora-B) or 10 mM MgCl2 (Aurora-A) and 1 mM DTT, at 37° C.
(§6) 80 μL of enzyme/substrate incubation buffer are distributed in each well, followed by 10 μL of product to be evaluated, at variable concentrations. The reaction is initiated by adding 1 μM final of ATP containing 0.2 μCi of [^33P]ATP (10 μL). After incubating for 30 minutes, the reaction is quenched by simple removal of the reaction buffer and each well is washed twice with 300 μl of Tris/HCl buffer. The radioactivity is then measured in each well using a Packard, Top-Count model scintillation machine.
(§7) The control enzymatic activity of Aurora is expressed by the number of counts per minute obtained over 30 minutes after subtracting the background noise (reaction mixture containing no enzyme). The evaluation of the various test products is expressed as a percentage of inhibition of the Aurora activity relative to the control.

Aurora2 = biological target: T2, Aurora2 (Homo sapiens, UniProt O14965); test: Aurora2 enzymatic test, NuMA phosphorylation with [33P]ATP, Flashplate; details: whole recombinant protein, 1 μM ATP
T2 construct: Aurora2: whole recombinant protein comprising an N-terminal histidine tail; His tag (N); made in house; host or cells: E. coli
T2 sequence (O14965 1-403): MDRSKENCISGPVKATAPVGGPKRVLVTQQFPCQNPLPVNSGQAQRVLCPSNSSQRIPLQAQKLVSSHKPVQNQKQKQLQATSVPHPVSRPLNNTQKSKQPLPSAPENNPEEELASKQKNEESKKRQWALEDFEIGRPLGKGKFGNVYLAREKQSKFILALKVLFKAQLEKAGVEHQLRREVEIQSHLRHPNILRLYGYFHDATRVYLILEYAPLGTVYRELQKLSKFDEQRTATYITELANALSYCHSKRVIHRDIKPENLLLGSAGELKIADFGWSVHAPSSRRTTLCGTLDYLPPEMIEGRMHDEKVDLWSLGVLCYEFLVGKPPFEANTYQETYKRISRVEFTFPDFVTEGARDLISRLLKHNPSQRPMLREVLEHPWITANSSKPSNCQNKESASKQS
Procedure: as §1, §2
Aurora2: whole recombinant protein comprising an N-terminal histidine tail, was expressed in E. coli and purified to more than 82%.
as §3, §4, §5, §6, §7

CDK2/cycline E = biological target: T3, CDK2/cycline E (Homo sapiens, UniProt P24941); test: CDK2/cyclineE Flashplate test in 96-well format; details: CDK2/cycline E complex, 1 μM ATP
T3 construct: made in house; host or cells: Sf21 insect cells (baculovirus coinfection)
Procedure: Two recombinant baculoviruses bearing the human sequences coding, respectively, for CDK2 and cyclineE (the latter bearing a C-terminal hexahistidine tag) are used to coinfect Sf21 insect cells. Two to three days after the start of coinfection, the cells are harvested by centrifugation and then stored at −40° C. until the time of use.
A format in streptavidin-coated 96-well plates is used to test the activity of the compounds on the kinase activity of CDK2/cycline E.
To perform this test, the biotinylated peptide substrate, a fragment of the protein pRb (biotinyl-[…]-OH), is dissolved at a concentration of 1 mM in kinase buffer (HEPES/NaOH 50 mM, NaCl 1 mM, MgCl2 5 mM, pH 7.5) in order to constitute a stock solution stored at −20° C. in the form of 110 μL aliquots. On the day of the experiment, an aliquot of this solution is thawed and diluted in kinase buffer containing 1 mM of dithiothreitol, added to the buffer extemporaneously, in order to obtain a concentration of 14.3 μM. 70 μL of this solution are added to each well of the Flashplate in order to obtain a final substrate concentration of 10 μM during the enzymatic reaction performed in a final volume of the reaction medium of 100 μL (cf. below).
Intermediate dilutions of inhibitors (products of the invention) at various concentrations are prepared in DMSO from stock solutions at 10 mM in separate tubes. Dilutions at 1000 μM, 333.3 μM, 111.1 μM, 37.03 μM, 12.35 μM, 4.11 μM and 1.37 μM are thus prepared. One μL of each of these solutions (or 1 μL of DMSO for the controls) is transferred into the wells of the test plate.
19 μl of a solution of a mixture of adenosine triphosphate (ATP) and of ATPγ^33P in kinase buffer at a total concentration of 5.26 μM of ATP and 52.6 μCi/ml of ^33P are then added to each well. The enzymatic reaction is initiated by adding 10 μL per well of a 200 nM solution of CDK2/cycline E in kinase buffer containing 1 mM of dithiothreitol (or 10 μL of kinase buffer containing 1 mM of dithiothreitol for the reaction blanks).
After addition of each of the reagents, the final volume of each well is 100 μL, the final concentration of substrate is 10 μM, the final inhibitor concentrations are 10 μM, 3.33 μM, 1.11 μM, 0.37 μM, 0.123 μM, 0.041 μM and 0.014 μM (according to the concentration of the intermediate dilution), the final ATP concentration is 1 μM, the final amount of ^33P is 1 μCi/well, and the final concentration of CDK2/cycline E complex is 20 nM.
After addition of all of the reagents, the test plate is incubated at 30° C. with orbital shaking at 650 rpm.
When the incubation is complete, the plate is washed three times with 300 μL per well of PBS (phosphate-buffered saline, pH=7.4, without calcium or magnesium, reference 10010-015, Gibco BRL). The incorporation of ^33P to the peptide is quantified by scintillation counting with a Packard Topcount.NXT machine.

Tie2 = biological target: T4, Tie2 (Homo sapiens, UniProt Q02763); test: Tie2 kinase test, phosphorylation of PLC with GST-Tie2; details: GST-Tie2 intracellular domain 776-1124
T4 construct: amino acids of the intracellular domain 776-1124; made in house; host or cells: baculovirus expression (pFastBacGT vector)
T4 sequence (Q02763 776-1124): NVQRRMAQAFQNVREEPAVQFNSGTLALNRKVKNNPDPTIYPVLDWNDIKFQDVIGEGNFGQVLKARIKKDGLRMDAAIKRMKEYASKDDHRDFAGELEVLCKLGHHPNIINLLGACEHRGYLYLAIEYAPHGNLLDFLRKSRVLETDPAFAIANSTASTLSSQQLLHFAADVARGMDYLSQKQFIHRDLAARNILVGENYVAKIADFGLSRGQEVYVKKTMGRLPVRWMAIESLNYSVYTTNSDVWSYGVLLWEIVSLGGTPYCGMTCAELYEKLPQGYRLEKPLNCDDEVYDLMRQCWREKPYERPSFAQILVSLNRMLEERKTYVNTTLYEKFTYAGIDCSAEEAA
Procedure: The coding sequence of human Tie2 corresponding to the amino acids of the intracellular domain 776-1124 was generated by PCR using the cDNA isolated from a human placenta as a model. This sequence was introduced into a pFastBacGT baculovirus expression vector in the form of a GST fusion protein.
The inhibitory effect of the molecules is determined in a test of phosphorylation of PLC with Tie2 in the presence of GST-Tie2 purified to about 80% homogeneity. The substrate is composed of the SH2-SH3 fragments of PLC expressed in the form of a GST fusion protein.
The kinase activity of Tie2 is measured in a MOPS 20 mM pH 7.2 buffer, containing 10 mM MgCl2, 10 mM MnCl2, 1 mM DTT, 10 mM of glycerophosphate. In a 96-well FlashPlate plate maintained on ice, a reaction mixture is deposited, composed of 70 μL of kinase buffer containing 100 ng of enzyme GST-Tie2 per well. Next, 10 μL of the test molecule diluted in DMSO to a maximum concentration of 10% are added. For a given concentration, each measurement is performed four times. The reaction is initiated by adding 20 μL of solution containing 2 μg of GST-PLC, 2 μm of cold ATP and 1 μCi of ^33P[ATP]. After incubation for one hour at 37° C., the reaction is stopped by adding 1 volume (100 μl) of 200 mM EDTA. After removal of the incubation buffer, the wells are washed three times with 300 μL of PBS. The radioactivity is measured on a MicroBeta1450 Wallac.
The inhibition of the Tie2 activity is calculated and expressed as a percentage of inhibition relative to the control activity determined in the absence of compound.

SMILES	IC50 (Aurora1)	IC50 (Aurora2)	IC50 (CDK2/cycline E)	IC50 (Tie2)
CN(NC(=O)c1cc2c(NC(=O)c3ccc(CN4CCCC4)cc3)n[nH]c2s1)c1ccc(Cl)cc1 [Example 18b, N-[5-(N′-(4-chlorophenyl)-N′-methylhydrazinocarbonyl)-1H-thieno[2,3-c]pyrazol-3-yl]-4-pyrrolidin-1-ylmethylbenzamide]	287 nM	50 nM	96 nM	388 nM
CC1CN(Cc2ccc(C(=O)Nc3n[nH]c4sc(C(=O)NN(C)c5ccccc5)cc34)cc2)CC(C)N1 (centres unmarked) [Example 11a, 4-(3,5-dimethylpiperazin-1-ylmethyl)-N-[5-(N′-methyl-N′-phenylhydrazinocarbonyl)-1H-thieno[2,3-c]pyrazol-3-yl]benzamide]	178 nM	31 nM	156 nM	520 nM
CN(NC(=O)c1cc2c(NC(=O)c3ccc(CN4CCCOCC4)cc3)n[nH]c2s1)c1ccc(Cl)cc1 [Example 21b, N-{5-[N′-(4-chlorophenyl)-N′-methylhydrazinocarbonyl]-1H-thieno[2,3-c]pyrazol-3-yl}-4-perhydro-1,4-oxazepin-4-ylmethylbenzamide]	160 nM	34 nM	82 nM	301 nM
CCN(CC)CCNCc1ccc(C(=O)Nc2n[nH]c3sc(C(=O)NN(C)c4ccc(Cl)cc4)cc23)cc1 [Example 23b, N-{5-[N′-(4-chlorophenyl)-N′-methylhydrazinocarbonyl]-1H-thieno[2,3-c]pyrazol-3-yl}-4-[(2-diethylaminoethylamino)methyl]benzamide]	259 nM	101 nM	138 nM	543 nM

Compounds with a lower IC50 (Aurora1), results first:

IC50 (Aurora1)	IC50 (Aurora2)	IC50 (CDK2/cycline E)	IC50 (Tie2)	SMILES
155 nM	75 nM	109 nM	369 nM	CN(C)CCN(C)Cc1ccc(C(=O)Nc2n[nH]c3sc(C(=O)NN(C)c4ccc(Cl)cc4)cc23)cc1 [Example 20b, N-{5-[N′-(4-chlorophenyl)-N′-methylhydrazinocarbonyl]-1H-thieno[2,3-c]pyrazol-3-yl}-4-{[(2-dimethylaminoethyl)methylamino]methyl}benzamide]
33 nM	28 nM	664 nM	75 nM	CCc1ccccc1NNC(=O)c1cc2c(NC(=O)c3ccc(OC)cc3)n[nH]c2s1 [Example 5, N-{5-[N′-(2-ethylphenyl)hydrazinocarbonyl]-1H-thieno[2,3-c]pyrazol-3-yl}-4-methoxybenzamide]
31 nM	45 nM	471 nM	192 nM	COc1ccc(C(=O)Nc2n[nH]c3sc(C(=O)NNC4CCCCC4)cc23)cc1 [Example 3, N-[5-(N′-cyclohexylhydrazinocarbonyl)-1H-thieno-[2,3-c]pyrazol-3-yl]-4-methoxybenzamide]
24 nM	6 nM	1120 nM	61 nM	CC(C)CN(NC(=O)c1cc2c(NC(=O)c3ccc(N4CCN(C)CC4)cc3)n[nH]c2s1)c1ccc(F)cc1 [Example 42, N-{5-[N′-(4-fluorophenyl)-N′-isobutylhydrazinocarbonyl]-1H-thieno[2,3-c]pyrazol-3-yl}-4-(4-methylpiperazin-1-yl)benzamide]
16 nM	17 nM	428 nM	186 nM	COc1ccc(C(=O)Nc2n[nH]c3sc(C(=O)NNc4ccccc4C)cc23)cc1 [Example 7, 4-methoxy-N-[5-(N′-o-tolylhydrazinocarbonyl)-1H-thieno[2,3-c]pyrazol-3-yl]benzamide]
12 nM	6 nM	100 nM	275 nM	CN(NC(=O)c1cc2c(NC(=O)c3ccc(OCCN4CCOCC4)cc3)n[nH]c2s1)c1ccccc1 [Example 46, N-[5-(N′-methyl-N′-phenylhydrazinocarbonyl)-1H-thieno[2,3-c]pyrazol-3-yl]-4-(2-morpholin-4-ylethoxy)benzamide]
9 nM	5 nM	1920 nM	6 nM	CN1CCN(c2ccc(C(=O)Nc3n[nH]c4sc(C(=O)NN(CC5CCC5)c5ccc(Cl)cc5)cc34)cc2)CC1 [Example 36, N-{5-[N′-(4-chlorophenyl)-N′-cyclobutylmethylhydrazinocarbonyl]-1H-thieno[2,3-c]pyrazol-3-yl}-4-(4-methylpiperazin-1-yl)-benzamide]
